Measurements published in ChEMBL document CHEMBL1201862, “PubChem BioAssay data set” (2004).
Activity calls are given as the source filed them.

Tests used:
[1] = molecular target: T1, Runt-related transcription factor 1/Core-binding factor subunit beta (Homo sapiens, UniProt Q01196+Q13951); assay: inhibitors of RUNX1 Runt–CBFb-SMMHC binding, primary screen, biochemical, FRET, Cerulean-Runt, Venus-CBFb-SMMHC, uHTS (AID 1434); assay type: protein assay;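 further: partner is the CBFb-SMMHC leukemia fusion protein rather than wild-type CBFb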
T1 sequence (Q01196 whole entry, the tested form may be a part): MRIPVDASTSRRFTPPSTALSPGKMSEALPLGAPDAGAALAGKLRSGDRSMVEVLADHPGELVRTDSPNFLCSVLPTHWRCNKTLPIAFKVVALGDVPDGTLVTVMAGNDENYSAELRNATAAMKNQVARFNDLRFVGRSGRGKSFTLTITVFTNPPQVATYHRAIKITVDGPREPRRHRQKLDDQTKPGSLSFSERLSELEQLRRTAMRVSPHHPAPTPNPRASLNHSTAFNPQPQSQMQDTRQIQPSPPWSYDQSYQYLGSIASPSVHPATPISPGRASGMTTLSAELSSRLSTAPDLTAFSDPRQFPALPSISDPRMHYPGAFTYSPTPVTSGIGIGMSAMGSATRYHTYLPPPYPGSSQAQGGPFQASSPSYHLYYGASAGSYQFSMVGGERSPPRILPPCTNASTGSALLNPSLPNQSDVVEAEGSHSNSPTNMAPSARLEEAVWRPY
T1 sequence (Q13951 whole entry, the tested form may be a part): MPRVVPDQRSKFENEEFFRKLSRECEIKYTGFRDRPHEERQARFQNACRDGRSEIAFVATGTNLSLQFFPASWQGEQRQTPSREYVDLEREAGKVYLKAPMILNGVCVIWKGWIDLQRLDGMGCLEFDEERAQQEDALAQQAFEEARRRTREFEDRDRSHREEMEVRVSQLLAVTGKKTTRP

[2] = molecular target: T1, Runt-related transcription factor 1/Core-binding factor subunit beta; assay: inhibitors of RUNX1 Runt–CBFb-SMMHC binding, biochemical, TR-FRET (AID 1438); assay type: protein assay
[3] = molecular target: T1, Runt-related transcription factor 1/Core-binding factor subunit beta; assay: Confirmation of compounds inhibiting the binding between the RUNX1 Runt domain and CBFb-SMMHC via a fluorescence resonance energy transfer (FRET) assay. [Related pubchem assays (depositor defined):AID1434, AID1438, AID1496, AID1550, AID1645]; assay type: protein assay
[4] = molecular target: T2, Sentrin-specific protease 7 (Homo sapiens, UniProt Q9BQF6); assay type: functional;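 further: Luminescence-based dose-response confirmation of ultra-high-throughput screening hits, measuring inhibition of SENP7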
T2 sequence (Q9BQF6 whole entry): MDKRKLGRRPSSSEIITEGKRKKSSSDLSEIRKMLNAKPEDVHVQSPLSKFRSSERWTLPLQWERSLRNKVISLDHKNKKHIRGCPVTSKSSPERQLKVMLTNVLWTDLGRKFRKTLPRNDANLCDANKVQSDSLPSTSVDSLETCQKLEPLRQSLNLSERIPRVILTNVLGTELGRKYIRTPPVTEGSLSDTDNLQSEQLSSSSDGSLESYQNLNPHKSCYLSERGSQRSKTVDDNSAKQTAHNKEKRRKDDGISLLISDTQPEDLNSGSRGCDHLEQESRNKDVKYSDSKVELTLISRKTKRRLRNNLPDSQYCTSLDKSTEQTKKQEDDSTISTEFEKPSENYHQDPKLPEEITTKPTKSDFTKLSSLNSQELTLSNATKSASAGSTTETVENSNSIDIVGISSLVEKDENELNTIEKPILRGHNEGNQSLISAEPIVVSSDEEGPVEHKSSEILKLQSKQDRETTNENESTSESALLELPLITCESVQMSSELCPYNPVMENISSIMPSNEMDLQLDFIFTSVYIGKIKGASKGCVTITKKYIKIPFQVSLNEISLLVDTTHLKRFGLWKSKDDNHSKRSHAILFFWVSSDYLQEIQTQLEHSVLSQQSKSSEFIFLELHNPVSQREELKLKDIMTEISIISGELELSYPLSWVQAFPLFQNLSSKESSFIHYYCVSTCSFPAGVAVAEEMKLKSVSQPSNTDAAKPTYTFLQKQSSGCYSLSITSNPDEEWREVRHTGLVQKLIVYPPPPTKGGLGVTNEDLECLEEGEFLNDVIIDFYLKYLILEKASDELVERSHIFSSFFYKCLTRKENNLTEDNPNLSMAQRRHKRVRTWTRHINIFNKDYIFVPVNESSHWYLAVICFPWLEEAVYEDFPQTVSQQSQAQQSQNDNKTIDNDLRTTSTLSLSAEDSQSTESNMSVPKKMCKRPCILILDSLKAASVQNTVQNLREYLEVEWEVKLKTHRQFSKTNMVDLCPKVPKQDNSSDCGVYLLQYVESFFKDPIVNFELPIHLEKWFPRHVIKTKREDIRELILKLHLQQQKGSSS

[5] = molecular target: T3, Sentrin-specific protease 8 (Homo sapiens, UniProt Q96LD8); assay type: functional;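 further: luminescence read-out of SENP8 inhibition, dose-response confirmation following an ultra-high-throughput screen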
T3 sequence (Q96LD8 whole entry): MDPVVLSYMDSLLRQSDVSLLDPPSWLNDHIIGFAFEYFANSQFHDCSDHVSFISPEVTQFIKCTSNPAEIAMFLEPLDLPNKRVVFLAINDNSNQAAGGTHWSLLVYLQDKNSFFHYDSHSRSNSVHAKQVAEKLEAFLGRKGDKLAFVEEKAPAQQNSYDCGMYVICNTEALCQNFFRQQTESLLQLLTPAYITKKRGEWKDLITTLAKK

Caspase-3 = molecular target: T4, Caspase-3 (Homo sapiens, UniProt P42574); assay type: functional;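 further: Dose-response selectivity test against caspase-3 for candidate inhibitors of sentrin-specific proteases (SENPs)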
T4 sequence (P42574 whole entry): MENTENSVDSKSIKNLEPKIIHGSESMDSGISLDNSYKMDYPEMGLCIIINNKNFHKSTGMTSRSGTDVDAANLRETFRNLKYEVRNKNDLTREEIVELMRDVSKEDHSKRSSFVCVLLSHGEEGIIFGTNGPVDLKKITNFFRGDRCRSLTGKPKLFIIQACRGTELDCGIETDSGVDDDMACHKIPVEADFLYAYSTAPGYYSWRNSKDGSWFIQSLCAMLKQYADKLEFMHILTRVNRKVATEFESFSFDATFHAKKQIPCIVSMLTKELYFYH

[6] = molecular target: T5, Sentrin-specific protease 6 (Homo sapiens, UniProt Q9GZR1); assay type: functional;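 further: Luminescence-based dose-response confirmatory assay of SENP6 inhibition, following up an ultra-high-throughput screen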
T5 sequence (Q9GZR1 whole entry): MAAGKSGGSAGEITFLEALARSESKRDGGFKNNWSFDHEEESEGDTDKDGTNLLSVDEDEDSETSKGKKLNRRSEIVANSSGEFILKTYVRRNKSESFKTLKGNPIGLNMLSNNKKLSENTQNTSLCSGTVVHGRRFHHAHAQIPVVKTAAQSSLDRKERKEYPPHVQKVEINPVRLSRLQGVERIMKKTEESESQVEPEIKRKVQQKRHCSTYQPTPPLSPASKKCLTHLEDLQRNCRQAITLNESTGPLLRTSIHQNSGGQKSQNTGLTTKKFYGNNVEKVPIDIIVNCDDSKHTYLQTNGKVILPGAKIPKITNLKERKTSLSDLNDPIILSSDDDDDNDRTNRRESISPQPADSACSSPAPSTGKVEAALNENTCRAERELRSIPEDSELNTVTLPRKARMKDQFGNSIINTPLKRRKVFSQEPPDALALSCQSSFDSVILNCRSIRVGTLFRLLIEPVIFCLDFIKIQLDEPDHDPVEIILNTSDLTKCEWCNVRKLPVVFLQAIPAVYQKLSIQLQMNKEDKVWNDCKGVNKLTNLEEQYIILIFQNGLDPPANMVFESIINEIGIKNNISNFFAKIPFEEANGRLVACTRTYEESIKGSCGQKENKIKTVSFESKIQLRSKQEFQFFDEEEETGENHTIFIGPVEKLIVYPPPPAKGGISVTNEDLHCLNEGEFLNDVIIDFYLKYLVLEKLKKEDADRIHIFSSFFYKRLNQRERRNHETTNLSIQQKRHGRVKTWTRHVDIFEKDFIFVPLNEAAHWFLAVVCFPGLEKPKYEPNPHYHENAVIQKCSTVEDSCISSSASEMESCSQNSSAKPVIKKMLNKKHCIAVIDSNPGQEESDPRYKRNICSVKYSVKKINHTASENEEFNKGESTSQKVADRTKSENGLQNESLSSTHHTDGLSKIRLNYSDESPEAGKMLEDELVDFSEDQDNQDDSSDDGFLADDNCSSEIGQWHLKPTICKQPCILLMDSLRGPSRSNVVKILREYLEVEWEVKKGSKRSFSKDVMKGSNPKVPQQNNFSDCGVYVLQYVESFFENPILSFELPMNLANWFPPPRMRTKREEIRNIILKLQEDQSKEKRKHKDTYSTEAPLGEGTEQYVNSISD

[7] = molecular target: T6, Peroxisome proliferator-activated receptor gamma (Homo sapiens, UniProt P37231); assay: PPARg partial agonists, dose response, cell-based, luminescence, assay provider (AID 504447); assay type: functional
T6 sequence (P37231 whole entry, the tested form may be a part): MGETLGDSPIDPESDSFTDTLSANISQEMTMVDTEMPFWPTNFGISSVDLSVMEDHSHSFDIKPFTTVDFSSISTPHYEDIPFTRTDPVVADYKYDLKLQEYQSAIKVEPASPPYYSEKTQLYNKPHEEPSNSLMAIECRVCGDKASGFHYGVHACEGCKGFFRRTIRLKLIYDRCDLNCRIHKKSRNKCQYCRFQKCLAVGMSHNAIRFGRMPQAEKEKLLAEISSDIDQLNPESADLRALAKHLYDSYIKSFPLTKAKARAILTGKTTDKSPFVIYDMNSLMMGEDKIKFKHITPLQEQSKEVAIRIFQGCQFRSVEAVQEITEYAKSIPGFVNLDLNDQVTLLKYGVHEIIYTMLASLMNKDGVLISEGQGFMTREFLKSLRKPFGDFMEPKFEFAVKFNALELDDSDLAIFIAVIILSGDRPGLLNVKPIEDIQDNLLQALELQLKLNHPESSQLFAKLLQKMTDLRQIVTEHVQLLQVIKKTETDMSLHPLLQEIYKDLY

[8] = molecular target: T6, Peroxisome proliferator-activated receptor gamma; assay: PPARg ligand-binding domain binders, dose response, PPARg partial agonist project, biochemical, TR-FRET, LanthaScreen (AID 504446)
[9] = molecular target: Peroxisome proliferator-activated receptor alpha (Homo sapiens, UniProt Q07869); assay: Late stage assay provider counterscreen for partial agonists of the peroxisome proliferator-activated receptor gamma (PPARg): Luminescence-based cell-based dose response assay for partial agonists of the peroxisome proliferator-activated receptor alpha (PPARA). [Related pubchem assays (depositor defined):AID1051, AID1300, AID1319, AID1679, AID1808, AID504446, AID504447, AID504452, AID504453, AID631]; assay type: functional
Sequence of Peroxisome proliferator-activated receptor alpha (Q07869 whole entry): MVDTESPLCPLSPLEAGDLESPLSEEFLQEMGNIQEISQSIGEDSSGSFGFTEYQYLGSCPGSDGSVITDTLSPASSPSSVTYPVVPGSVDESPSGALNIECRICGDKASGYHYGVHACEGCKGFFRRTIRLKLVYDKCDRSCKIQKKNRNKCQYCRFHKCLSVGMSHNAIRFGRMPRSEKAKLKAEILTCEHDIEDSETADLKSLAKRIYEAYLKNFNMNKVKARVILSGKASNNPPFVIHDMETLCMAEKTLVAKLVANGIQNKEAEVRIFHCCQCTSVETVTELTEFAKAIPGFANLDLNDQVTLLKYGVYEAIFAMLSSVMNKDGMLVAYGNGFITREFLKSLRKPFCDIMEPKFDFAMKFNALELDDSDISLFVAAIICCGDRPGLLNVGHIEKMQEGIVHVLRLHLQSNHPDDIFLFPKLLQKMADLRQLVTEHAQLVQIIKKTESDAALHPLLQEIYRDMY

EC50 [7] | IC50 [8] | EC50 [9] | SMILES | IC50 [1] | IC50 [2] | IC50 [3] | IC50 [4] | IC50 [5] | IC50 (Caspase-3) | IC50 [6]
 |  |  | O=S(=O)(Nc1ccc(-c2nc3cccnc3s2)cc1)c1ccc(Cl)s1 | 5.46 µM (active) | 24 µM (active) | 1.87 µM (active) | 18.8 µM (active) | 29.1 µM (active) | 31.2 µM (active) | 25 µM (active)
1.5 µM (active) | 2.5 µM (active) | 0.057 µM (active) | O=C(O)CCN1C(=O)/C(=C/c2ccc(F)cc2F)SC1=S |  |  |  |  |  |  | 
